From patent US8183239B2, “Substituted piperazines and piperidines as modulators of the neuropeptide Y2 receptor” (Janssen Pharmaceutica NV, priority 2005, dated 2012)
pIC50: −log10 of the molar value.

target: T1, Y2 receptors (Homo sapiens, UniProt P49146); experiment: Radioligand binding assay ([125I]PYY, KAN-Ts cell membranes); conditions: Table 2, [125I]PYY 80 pM, average of results, read-out: IC50
T1 construct: endogenous in cells; host or cells: KAN-Ts cells (membranes)
T1 sequence (P49146 1-381): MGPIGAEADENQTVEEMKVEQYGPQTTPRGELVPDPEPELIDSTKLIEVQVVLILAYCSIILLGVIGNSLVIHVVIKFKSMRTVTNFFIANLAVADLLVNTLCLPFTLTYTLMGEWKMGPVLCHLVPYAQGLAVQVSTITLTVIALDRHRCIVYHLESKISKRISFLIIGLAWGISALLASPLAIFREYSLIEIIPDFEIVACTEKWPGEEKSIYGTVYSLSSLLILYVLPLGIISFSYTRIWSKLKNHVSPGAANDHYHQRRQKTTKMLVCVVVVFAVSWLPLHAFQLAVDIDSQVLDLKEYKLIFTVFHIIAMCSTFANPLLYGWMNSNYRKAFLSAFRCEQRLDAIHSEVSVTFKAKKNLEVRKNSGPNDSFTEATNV
In short: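 IC50 values are means of three to eight experiments run in duplicate, fitted sigmoidally against specific binding (defined by […]). Competition used 80 pM [^125I]PYY for 1 h at room temperature on KAN-Ts membranes carrying native Y2, with filtration and scintillation counting.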

| Structure (SMILES) | pIC50 |
| --- | --- |
| CCN(CC)C(=O)C(c1ccccc1)N1CCN(c2ccc(NC(=O)C3CCCC3)cc2F)CC1 (centres unmarked) [Example 244, Cyclopentanecarboxylic acid {4-[4-(diethylcarbamoyl-phenyl-methyl)-piperazin-1-yl]-3-fluoro-phenyl}-amide] | 7.10 |
| CCC(CC)NC(=O)c1ccc(N2CCN(C(C(=O)N(CC)CC)c3ccccc3)CC2)c(F)c1 (centres unmarked) [Example 245, 4-[4-(Diethylcarbamoyl-phenyl-methyl)-piperazin-1-yl]-N-(1-ethyl-propyl)-3-fluoro-benzamide] | 5.52 |
| CCN(CC)C(=O)C(c1ccccc1)N1CCN(c2ccc(CNC(=O)C(C)CC(F)(F)F)cc2F)CC1 (centres unmarked) [Example 246, N-{4-[4-(Diethylcarbamoyl-phenyl-methyl)-piperazin-1-yl]-3-fluoro-benzyl}-4,4,4-trifluoro-2-methyl-butyramide] | 5.66 |
| CCN(CC)C(=O)C(c1ccccc1)N1CCN(c2ccc(CNC(=O)[C@H]3CCOC3)cc2F)CC1 (stereo partly drawn) [Example 247, (S)-Tetrahydro-furan-3-carboxylic acid 4-[4-(diethylcarbamoyl-phenyl-methyl)-piperazin-1-yl]-3-fluoro-benzylamide] | ≤ 5.00 |
| CCC(CC)C(=O)Nc1ccc(N2CCC([C@@H](C(=O)N(CC)CC)c3ccccc3)CC2)c(F)c1 [Example 248, (R)-(−)-N-{4-[4-(Diethylcarbamoyl-phenyl-methyl)-piperidin-1-yl]-3-fluoro-phenyl}-2-ethyl-butyramide] | 7.89 |
| CCC(CC)C(=O)Nc1ccc(N2CCC([C@H](C(=O)N(CC)CC)c3ccccc3)CC2)c(F)c1 [Example 249, (S)—(+)-N-{4-[4-(Diethylcarbamoyl-phenyl-methyl)-piperidin-1-yl]-3-fluoro-phenyl}-2-ethyl-butyramide] | 7.00 |
| CCC(CC)C(=O)Nc1ccc(N2CCN(C(C(=O)N(CC)CC)c3ccc(OC)cc3)CC2)c(C#N)c1 (centres unmarked) [Example 250, N-(3-Cyano-4-{4-[diethylcarbamoyl-(4-methoxy-phenyl)-methyl]-piperazin-1-yl}-phenyl)-2-ethyl-butyramide] | 8.05 |
| CCC(CC)C(=O)Nc1ccc(N2CCN(C(C(=O)N(CC)CC)c3ccc(OC)cc3)CC2)c(F)c1 (centres unmarked) [Example 251, N-(4-{4-[Diethylcarbamoyl-(4-methoxy-phenyl)-methyl]-piperazin-1-yl}-3-fluoro-phenyl)-2-ethyl-butyramide] | 7.74 |
| CCC(CC)C(=O)Nc1ccc(N2CCN(C(C(=O)N(CC)CC)c3ccc(O)cc3)CC2)c(F)c1 (centres unmarked) [Example 252, N-(4-{4-[Diethylcarbamoyl-(4-hydroxy-phenyl)-methyl]-piperazin-1-yl}-3-fluoro-phenyl)-2-ethyl-butyramide] | 6.98 |
| CCC(CC)C(=O)Nc1ccc(N2CCN(C(C(=O)N(CC)CC)c3ccc(Cl)cc3)CC2)c(F)c1 (centres unmarked) [Example 253, N-(4-{4-[(4-Chloro-phenyl)-diethylcarbamoyl-methyl]-piperazin-1-yl}-3-fluoro-phenyl)-2-ethyl-butyramide] | 6.99 |
| CCC(CC)C(=O)Nc1ccc(N2CCN(C(C(=O)N(CC)CC)c3ccc(C#N)cc3)CC2)c(F)c1 (centres unmarked) [Example 254, N-(4-{4-[(4-Cyano-phenyl)-diethylcarbamoyl-methyl]-piperazin-1-yl}-3-fluoro-phenyl)-2-ethyl-butyramide] | 7.36 |
| CCOc1ccc(C(C(=O)N(CC)CC)N2CCN(c3ccc(NC(=O)C(CC)CC)cc3F)CC2)cc1 (centres unmarked) [Example 255, N-(4-{4-[Diethylcarbamoyl-(4-ethoxy-phenyl)-methyl]-piperazin-1-yl}-3-fluoro-phenyl)-2-ethyl-butyramide] | 7.36 |
| CCC(CC)C(=O)Nc1ccc(N2CCN(C(C(=O)N(CC)CC)c3ccc(OC(F)(F)F)cc3)CC2)c(F)c1 (centres unmarked) [Example 256, N-(4-{4-[Diethylcarbamoyl-(4-trifluoromethoxy-phenyl)-methyl]-piperazin-1-yl}-3-fluoro-phenyl)-2-ethyl-butyramide] | 7.59 |
| CCC(CC)C(=O)Nc1ccc(N2CCN(C(C(=O)N(CC)CC)c3ccccc3)C(C)C2)c(F)c1 (centres unmarked) [Example 257, N-{4-[4-(Diethylcarbamoyl-phenyl-methyl)-3-methyl-piperazin-1-yl]-3-fluoro-phenyl}-2-ethyl-butyramide] | 7.17 |
| CCC(CC)C(=O)Nc1ccc(N2CCN(C(C(=O)N(CC)CC)c3ccccc3)CC2C)c(F)c1 (centres unmarked) [Example 258] | 6.84 |
| CCC(CC)C(=O)Nc1ccc(N2CCN(C(C(=O)c3ccccc3)c3ccccc3)CC2)c(F)c1 (centres unmarked) [Example 259, 2-Ethyl-N-{3-fluoro-4-[4-(2-oxo-1,2-diphenyl-ethyl)-piperazin-1-yl]-phenyl}-butyramide] | 7.15 |
| CCC(CC)C(=O)Nc1ccc(N2CCN(C(C(=O)N(CC)CC)c3ccccn3)CC2)c(F)c1 (centres unmarked) [Example 260, N-{4-[4-(Diethylcarbamoyl-pyridin-2-yl-methyl)-piperazin-1-yl]-3-fluoro-phenyl}-2-ethyl-butyramide] | 7.00 |
| CCC(CC)C(=O)Nc1ccc(N2CCN(C(C(=O)N3CCC(F)(F)C3)c3ccccn3)CC2)c(F)c1 (centres unmarked) [Example 261, N-(4-{4-[2-(3,3-Difluoro-pyrrolidin-1-yl)-2-oxo-1-pyridin-2-yl-ethyl]-piperazin-1-yl}-3-fluoro-phenyl)-2-ethyl-butyramide] | 6.89 |
| CCC(CC)C(=O)Nc1ccc(N2CCN(C(C(=O)OC)c3ccc(O)cc3)CC2)c(F)c1 (centres unmarked) [Example 262, {4-[4-(2-Ethyl-butyrylamino)-2-fluoro-phenyl]-piperazin-1-yl}-(4-hydroxy-phenyl)-acetic acid methyl ester] | 6.79 |
| CCC(CC)C(=O)Nc1ccc(N2CCN(C(C(=O)OC)c3ccc(OC)cc3)CC2)c(F)c1 (centres unmarked) [Example 263, {4-[4-(2-Ethyl-butyrylamino)-2-fluoro-phenyl]-piperazin-1-yl}-(4-methoxy-phenyl)-acetic acid methyl ester] | 6.60 |
| CCC(CC)C(=O)Nc1ccc(N2CCN(C(C(=O)OC)c3ccccn3)CC2)c(F)c1 (centres unmarked) [Example 264, {4-[4-(2-Ethyl-butyrylamino)-2-fluoro-phenyl]-piperazin-1-yl}-pyridin-2-yl-acetic acid methyl ester] | 6.26 |
| CCC(CC)C(=O)Nc1ccc(N2CCN(C(CO)c3ccccc3)CC2)c(F)c1 (centres unmarked) [Example 266, 2-Ethyl-N-{3-fluoro-4-[4-(2-hydroxy-1-phenyl-ethyl)-piperazin-1-yl]-phenyl}-butyramide] | 6.11 |
| CCC(CC)C(=O)Nc1ccc(N2CCN(C(C)c3ccccc3)CC2)c(F)c1 (centres unmarked) [Example 267, 2-Ethyl-N-{3-fluoro-4-[4-(1-phenyl-ethyl)-piperazin-1-yl]-phenyl}-butyramide] | 5.90 |
| CCC(CC)C(=O)Nc1ccc(N2CCN(Cc3ccccc3)CC2)c(F)c1 [Example 268, N-[4-(4-Benzyl-piperazin-1-yl)-3-fluoro-phenyl]-2-ethyl-butyramide] | 5.85 |
| CCC(CC)C(=O)Nc1ccc(N2CCN(Cc3ccc4c(c3)OCO4)C(C(=O)OC)C2)c(F)c1 (centres unmarked) [Example 270, 1-Benzo[1,3]dioxol-5-ylmethyl-4-[4-(2-ethyl-butyrylamino)-2-fluoro-phenyl]-piperazine-2-carboxylic acid methyl ester] | 5.52 |
| CCC(CC)C(=O)Nc1ccc(N2CCN(Cc3ccccc3)C(C(=O)OC)C2)c(F)c1 (centres unmarked) [Example 271, 1-Benzyl-4-[4-(2-ethyl-butyrylamino)-2-fluoro-phenyl]-piperazine-2-carboxylic acid methyl ester] | 5.40 |
